According to ChEMBL document CHEMBL1201862, “PubChem BioAssay data set” (2004):
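All cell lines were grown in 96-well plates and treated with compound for 48 hours. The concentration for 50% growth inhibition is given as GI50.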 Calls of active or inactive are those of the source. Cut-off read from the data, not from the text of the source: active = GI50 up to about 1.1 µM and inactive = higher.

Columns and labels:
Test in all cases: NCI-60 cell line screen, 48 h
[1] = system: SR
[2] = system: HCT-116
[3] = system: Malme-3M
[4] = system: CCRF-CEM
[5] = system: SNB-75
[6] = system: HCC 2998
[7] = system: OVCAR-5
[8] = system: CAKI-1
[9] = system: RPMI-8226
[10] = system: OVCAR-8
[11] = system: OVCAR-4
[12] = system: SK-MEL-28
[13] = system: UACC-257
[14] = system: NCI-H226
[15] = system: SK-MEL-2
[16] = system: DU-145
[17] = system: ACHN
[18] = system: A549
[19] = system: KM12
[20] = system: MOLT-4

Structure (SMILES)	GI50 [1]	GI50 [2]	GI50 [3]	GI50 [4]	GI50 [5]	GI50 [6]	GI50 [7]	GI50 [8]	GI50 [9]	GI50 [10]	GI50 [11]	GI50 [12]	GI50 [13]	GI50 [14]	GI50 [15]	GI50 [16]	GI50 [17]	GI50 [18]	GI50 [19]	GI50 [20]
O=C(O)Cn1ccnc1[N+](=O)[O-]	> 100 µM (inactive)	> 100 µM (inactive)	> 100 µM (inactive)	> 100 µM (inactive)	> 100 µM (inactive)	> 100 µM (inactive)	> 100 µM (inactive)	> 100 µM (inactive)	> 100 µM (inactive)	> 100 µM (inactive)	> 100 µM (inactive)	> 100 µM (inactive)	> 100 µM (inactive)	> 100 µM (inactive)	> 100 µM (inactive)	> 100 µM (inactive)	> 100 µM (inactive)	> 100 µM (inactive)	> 100 µM (inactive)	> 100 µM (inactive)
COC(=O)C1(Cc2ccccc2)Cc2ccc3c(c2C1=O)CCC3 (stereo not given)	28.7 µM (inactive)	30.5 µM (inactive)	14.2 µM (inactive)	26.9 µM (inactive)	22.6 µM (inactive)	38.1 µM (inactive)	> 63 µM (inactive)	9.73 µM (inactive)	25.4 µM (inactive)	59.6 µM (inactive)	> 29.9 µM (inactive)	> 70.6 µM (inactive)	35.2 µM (inactive)	> 55.6 µM (inactive)	18.1 µM (inactive)	> 75.3 µM (inactive)	51.4 µM (inactive)	46.3 µM (inactive)	31.8 µM (inactive)	20.6 µM (inactive)
C/C(=N/CC(=O)O)c1ccccc1	65 µM (inactive)	> 100 µM (inactive)	> 100 µM (inactive)	27.8 µM (inactive)	> 100 µM (inactive)	39.8 µM (inactive)	> 100 µM (inactive)	> 100 µM (inactive)	> 100 µM (inactive)	> 100 µM (inactive)	> 100 µM (inactive)	> 100 µM (inactive)	> 100 µM (inactive)	> 100 µM (inactive)	> 100 µM (inactive)	> 100 µM (inactive)	> 100 µM (inactive)	> 100 µM (inactive)	> 100 µM (inactive)	70.5 µM (inactive)
CCCc1cc(-c2ccc(-c3cc(CCC)c(C=O)[nH]3)s2)[nH]c1C=O	2.14 µM (inactive)	21.8 µM (inactive)	21.2 µM (inactive)	2.44 µM (inactive)	> 100 µM (inactive)	5.56 µM (inactive)	15.1 µM (inactive)	> 100 µM (inactive)	> 100 µM (inactive)	> 49.1 µM (inactive)	47.4 µM (inactive)	63 µM (inactive)	> 100 µM (inactive)	> 100 µM (inactive)	22 µM (inactive)	> 100 µM (inactive)	> 26.7 µM (inactive)	4.42 µM (inactive)	> 27.9 µM (inactive)	2.9 µM (inactive)
COc1ccc2c3c([nH]c2c1)CCN(CCCC(=O)c1ccc(F)cc1)C3	18 µM (inactive)	12.2 µM (inactive)	13.4 µM (inactive)	19.8 µM (inactive)	12.2 µM (inactive)	5.53 µM (inactive)	13.8 µM (inactive)	16 µM (inactive)	16.7 µM (inactive)	15.6 µM (inactive)	16.8 µM (inactive)	15.3 µM (inactive)	17.6 µM (inactive)	16.5 µM (inactive)	17.5 µM (inactive)	18.7 µM (inactive)	17.1 µM (inactive)	17.1 µM (inactive)	19.7 µM (inactive)	16.7 µM (inactive)
O=C(Sc1c(-c2ccccc2)c(=O)n(-c2ccccc2)c(=S)n1-c1ccccc1)c1ccco1	29.2 µM (inactive)	> 100 µM (inactive)	> 69.5 µM (inactive)	18.7 µM (inactive)	72.1 µM (inactive)	> 100 µM (inactive)	> 100 µM (inactive)	> 100 µM (inactive)	33.8 µM (inactive)	> 100 µM (inactive)	> 100 µM (inactive)	> 100 µM (inactive)	> 31.6 µM (inactive)	> 100 µM (inactive)	> 100 µM (inactive)	> 100 µM (inactive)	> 100 µM (inactive)	> 100 µM (inactive)	> 100 µM (inactive)	27.5 µM (inactive)
CC1=C(C(=O)OC(C)C)C(c2ccccc2[N+](=O)[O-])C(C(=O)OC(CO[N+](=O)[O-])CO[N+](=O)[O-])=C(C)N1 (stereo not given)	18.6 µM (inactive)	2.55 µM (inactive)	3.91 µM (inactive)	2.09 µM (inactive)	1.54 µM (inactive)	5.83 µM (inactive)	13.8 µM (inactive)	3.32 µM (inactive)	2.98 µM (inactive)	3.28 µM (inactive)	2.12 µM (inactive)	4.01 µM (inactive)	3.85 µM (inactive)	7.16 µM (inactive)	2.99 µM (inactive)	5.68 µM (inactive)	3.21 µM (inactive)	3.09 µM (inactive)	3.75 µM (inactive)	1.46 µM (inactive)
C[C@]12CC[C@H]3[C@@H](CCC4=C[C@@H](OC5OCC(OC6OC(CO)C(O)C(O)C6O)C(O)C5O)CC[C@@]43C=O)[C@@]1(O)CCC2C1=CC(=O)OC1 (stereo not given in full)	0.221 µM (active)	0.322 µM (active)	0.59 µM (active)	0.244 µM (active)	1.4 µM (inactive)	0.421 µM (active)	1.86 µM (inactive)	0.347 µM (active)	0.628 µM (active)	0.931 µM (active)	0.237 µM (active)	2.57 µM (inactive)	1.42 µM (inactive)	2.15 µM (inactive)	1.62 µM (inactive)	0.435 µM (active)	0.137 µM (active)	0.165 µM (active)	2.71 µM (inactive)	0.0986 µM (active)
COc1ccc(/C=C2\N=C(N3CCCCC3)NC2=O)cc1	72.1 µM (inactive)	> 100 µM (inactive)	> 100 µM (inactive)	> 100 µM (inactive)	37.2 µM (inactive)	> 100 µM (inactive)	> 100 µM (inactive)	> 100 µM (inactive)	> 100 µM (inactive)	> 100 µM (inactive)	> 100 µM (inactive)	> 100 µM (inactive)	> 100 µM (inactive)	> 100 µM (inactive)	> 100 µM (inactive)	> 100 µM (inactive)	> 100 µM (inactive)	> 100 µM (inactive)	52.1 µM (inactive)	> 100 µM (inactive)
CCCCON1C[C@@H](O)C(O)[C@@H](O)C1 (stereo not given in full)	> 100 µM (inactive)	> 100 µM (inactive)	> 100 µM (inactive)	> 100 µM (inactive)	> 100 µM (inactive)	> 100 µM (inactive)	> 100 µM (inactive)	> 100 µM (inactive)	> 100 µM (inactive)	> 100 µM (inactive)	> 100 µM (inactive)	> 100 µM (inactive)	> 100 µM (inactive)	> 100 µM (inactive)	> 100 µM (inactive)	> 100 µM (inactive)	> 100 µM (inactive)	> 100 µM (inactive)	> 100 µM (inactive)	> 100 µM (inactive)
Cc1cc(=O)oc2cc(OC(=O)Nc3ccccc3)ccc12	29.5 µM (inactive)	47.8 µM (inactive)	> 100 µM (inactive)	27.2 µM (inactive)	> 100 µM (inactive)	84.3 µM (inactive)	> 100 µM (inactive)	> 100 µM (inactive)	25.4 µM (inactive)	53.3 µM (inactive)	> 100 µM (inactive)	> 100 µM (inactive)	> 100 µM (inactive)	73.1 µM (inactive)	> 100 µM (inactive)	76.9 µM (inactive)	74 µM (inactive)	62.1 µM (inactive)	32.4 µM (inactive)	40.8 µM (inactive)
S=C1Cc2cc3ccccc3nc2-c2ccccc2N1	29 µM (inactive)	13.6 µM (inactive)	27.5 µM (inactive)	> 100 µM (inactive)	7.24 µM (inactive)	16.2 µM (inactive)	51.2 µM (inactive)	29.6 µM (inactive)	> 50.7 µM (inactive)	11.9 µM (inactive)	12.4 µM (inactive)	27.5 µM (inactive)	29.1 µM (inactive)	16.1 µM (inactive)	36.7 µM (inactive)	70.8 µM (inactive)	24 µM (inactive)	26.1 µM (inactive)	19.3 µM (inactive)	> 96.8 µM (inactive)
O=[N+]([O-])C(=C(\Cl)NCCO)/C(Cl)=C(/Cl)Br	1.11 µM (active)	1.61 µM (inactive)	1.62 µM (inactive)	0.323 µM (active)	3.37 µM (inactive)	3.33 µM (inactive)	4 µM (inactive)	0.558 µM (active)	1.48 µM (inactive)	1.87 µM (inactive)	0.716 µM (active)	2.1 µM (inactive)	1.87 µM (inactive)	6.73 µM (inactive)	1.03 µM (active)	7.74 µM (inactive)	2.75 µM (inactive)	7.91 µM (inactive)	5.57 µM (inactive)	0.481 µM (active)
C[C@H](CCC(=O)O)[C@H]1CC[C@H]2[C@@H]3[C@H](O)C[C@@H]4C[C@H](O)CC[C@]4(C)[C@H]3C[C@H](O)[C@]12C	> 100 µM (inactive)	> 100 µM (inactive)	> 100 µM (inactive)	> 100 µM (inactive)	> 100 µM (inactive)	> 100 µM (inactive)	> 100 µM (inactive)	> 100 µM (inactive)	> 100 µM (inactive)	> 100 µM (inactive)	> 100 µM (inactive)	> 100 µM (inactive)	> 100 µM (inactive)	> 100 µM (inactive)	> 100 µM (inactive)	> 100 µM (inactive)	> 100 µM (inactive)	> 100 µM (inactive)	> 100 µM (inactive)	> 100 µM (inactive)
